Source: ChEMBL document CHEMBL1275576, “In vitro activity of tomopenem (CS-023/RO4908463) against anaerobic bacteria” (Antimicrob Agents Chemother, 2009)

Key:
Bacteroides caccae = assay: Antimicrobial activity against Bacteroides caccae by agar dilution method in presence of 5% laked sheep blood; type: functional
[1] = tested on: Paeniclostridium sordellii; assay: Antimicrobial activity against Clostridium sordellii ATCC 9714 by agar dilution method in presence of 5% laked sheep blood; type: functional; conditions: Paraclostridium sordellii
[2] = tested on: Desulfovibrio desulfuricans; assay: Antimicrobial activity against Desulfovibrio desulfuricans ATCC 29577 by agar dilution method in presence of 5% laked sheep blood; type: functional
Prevotella denticola = assay: Antimicrobial activity against Prevotella denticola GAI 5490 by agar dilution method in presence of 5% laked sheep blood; type: functional
Finegoldia magna = assay: Antimicrobial activity against Finegoldia magna by agar dilution method in presence of 5% laked sheep blood; type: functional
[3] = tested on: Bacteroides thetaiotaomicron; assay: Antimicrobial activity against Bacteroides thetaiotaomicron by agar dilution method in presence of 5% laked sheep blood; type: functional
Bacteroides uniformis [4] = assay: Antimicrobial activity against Bacteroides uniformis by agar dilution method in presence of 5% laked sheep blood; type: functional
[5] = tested on: Fusobacterium necrophorum; assay: Antimicrobial activity against Fusobacterium necrophorum by agar dilution method in presence of 5% laked sheep blood; type: functional
[6] = tested on: Bifidobacterium pseudolongum; assay: Antimicrobial activity against Bifidobacterium pseudolongum ATCC 25526 by agar dilution method in presence of 5% laked sheep blood; type: functional
Bifidobacterium breve = assay: Antimicrobial activity against Bifidobacterium breve ATCC 15700 by agar dilution method in presence of 5% laked sheep blood; type: functional
Fusobacterium sp. = assay: Antimicrobial activity against Fusobacterium sp. by agar dilution method in presence of 5% laked sheep blood; type: functional
[7] = tested on: Peptoniphilus asaccharolyticus; assay: Antimicrobial activity against Peptoniphilus asaccharolyticus WAL 3218 by agar dilution method in presence of 5% laked sheep blood; type: functional
Eggerthella lenta [8] = assay: Antimicrobial activity against Eggerthella lenta by agar dilution method in presence of 5% laked sheep blood; type: functional
[9] = tested on: Peptostreptococcus anaerobius; assay: Antimicrobial activity against Peptostreptococcus anaerobius by agar dilution method in presence of 5% laked sheep blood; type: functional
[10] = tested on: Peptoniphilus asaccharolyticus; assay: Antimicrobial activity against Peptoniphilus asaccharolyticus by agar dilution method in presence of 5% laked sheep blood; type: functional
[11] = tested on: Prevotella melaninogenica; assay: Antimicrobial activity against Prevotella melaninogenica by agar dilution method in presence of 5% laked sheep blood; type: functional
Bacteroides fragilis [12] = assay: Antimicrobial activity against Bacteroides fragilis by agar dilution method in presence of 5% laked sheep blood; type: functional
Bacteroides stercoris = assay: Antimicrobial activity against Bacteroides stercoris by agar dilution method in presence of 5% laked sheep blood; type: functional
[13] = tested on: Limosilactobacillus reuteri; assay: Antimicrobial activity against Lactobacillus reuteri JCM 1112 by agar dilution method in presence of 5% laked sheep blood; type: functional
[14] = tested on: Parabacteroides distasonis; assay: Antimicrobial activity against Parabacteroides distasonis by agar dilution method in presence of 5% laked sheep blood; type: functional
[15] = tested on: Streptococcus intermedius; assay: Antimicrobial activity against Streptococcus intermedius ATCC 27335 by agar dilution method in presence of 5% laked sheep blood; type: functional
Porphyromonas uenonis = assay: Antimicrobial activity against Porphyromonas uenonis by agar dilution method in presence of 5% laked sheep blood; type: functional
[16] = tested on: Porphyromonas asaccharolytica; assay: Antimicrobial activity against Porphyromonas asaccharolyticus by agar dilution method in presence of 5% laked sheep blood; type: functional
Fusobacterium nucleatum [17] = assay: Antimicrobial activity against Fusobacterium nucleatum ATCC 25586 by agar dilution method in presence of 5% laked sheep blood; type: functional
Atopobium parvulum = assay: Antimicrobial activity against Atopobium parvulum VPI 0546 by agar dilution method in presence of 5% laked sheep blood; type: functional; conditions: Lancefieldella parvula
Clostridium perfringens = assay: Antimicrobial activity against Clostridium perfringens ATCC 13124 by agar dilution method in presence of 5% laked sheep blood; type: functional
[18] = Antimicrobial activity against Veillonella dispar ATCC 17748 by agar dilution method in presence of 5% laked sheep blood; type: functional
Fusobacterium nucleatum [19] = assay: Antimicrobial activity against Fusobacterium nucleatum by agar dilution method in presence of 5% laked sheep blood; type: functional
Parvimonas micra = assay: Antimicrobial activity against Parvimonas micra by agar dilution method in presence of 5% laked sheep blood; type: functional
Clostridioides difficile = assay: Antimicrobial activity against Clostridium difficile by agar dilution method in presence of 5% laked sheep blood; type: functional
Bacteroides uniformis [20] = assay: Antimicrobial activity against Bacteroides uniformis ATCC 8492 by agar dilution method in presence of 5% laked sheep blood; type: functional
[21] = Antimicrobial activity against Desulfovibrio piger DSM 749 by agar dilution method in presence of 5% laked sheep blood; type: functional, Desulfovibrio piger ATCC 29098
Porphyromonas gingivalis = assay: Antimicrobial activity against Porphyromonas gingivalis by agar dilution method in presence of 5% laked sheep blood; type: functional
Eggerthella lenta [22] = assay: Antimicrobial activity against Eggerthella lenta ATCC 25559 by agar dilution method in presence of 5% laked sheep blood; type: functional
[23] = Antimicrobial activity against Bifidobacterium adolescentis ATCC 15703 by agar dilution method in presence of 5% laked sheep blood; type: functional
Bacteroides fragilis [24] = assay: Antimicrobial activity against Bacteroides fragilis GAI 10150 by agar dilution method in presence of 5% laked sheep blood; type: functional
Odoribacter splanchnicus = assay: Antimicrobial activity against Odoribacter splanchnicus by agar dilution method in presence of 5% laked sheep blood; type: functional
Bacteroides fragilis [25] = assay: Antimicrobial activity against Bacteroides fragilis GAI 5562 by agar dilution method in presence of 5% laked sheep blood; type: functional
Eubacterium limosum = assay: Antimicrobial activity against Eubacterium limosum by agar dilution method in presence of 5% laked sheep blood; type: functional
Prevotella oris = assay: Antimicrobial activity against Prevotella oris ATCC 33573 by agar dilution method in presence of 5% laked sheep blood; type: functional; conditions: Segatella oris
[26] = tested on: Desulfovibrio desulfuricans; assay: Antimicrobial activity against Desulfovibrio desulfuricans by agar dilution method in presence of 5% laked sheep blood; type: functional
[27] = Antimicrobial activity against Bifidobacterium longum subsp. longum ATCC 15707 by agar dilution method in presence of 5% laked sheep blood; type: functional
[28] = tested on: Porphyromonas asaccharolytica; assay: Antimicrobial activity against Porphyromonas asaccharolyticus ATCC 25260 by agar dilution method in presence of 5% laked sheep blood; type: functional; conditions: DSM 20707
Lactobacillus brevis = assay: Antimicrobial activity against Lactobacillus brevis subsp. brevis JCM 1059 by agar dilution method in presence of 5% laked sheep blood; type: functional; conditions: Levilactobacillus brevis
Gemella morbillorum = assay: Antimicrobial activity against Gemella morbillorum ATCC 27824 by agar dilution method in presence of 5% laked sheep blood; type: functional

## C[C@@H](O)[C@H]1C(=O)N2C(C(=O)O)=C(S[C@@H]3CN[C@H](CNS(N)(=O)=O)C3)[C@H](C)[C@H]12 [DORIPENEM]
Bacteroides caccae
  MIC50: 0.5 µg/mL
  MIC90: 4 µg/mL
[1]
  MIC: ≤ 0.015 µg/mL
[2]
  MIC: 0.125 µg/mL
Prevotella denticola
  MIC: 0.06 µg/mL
Finegoldia magna
  MIC50: 0.125 µg/mL
  MIC90: 0.25 µg/mL
[3]
  MIC50: 0.5 µg/mL
  MIC90: 1 µg/mL
Bacteroides uniformis [4]
  MIC50: 0.5 µg/mL
  MIC90: 4 µg/mL
[5]
  MIC50: 0.03 µg/mL
  MIC90: 0.25 µg/mL
[6]
  MIC: 0.5 µg/mL
Bifidobacterium breve
  MIC: 1 µg/mL
Fusobacterium sp.
  MIC50: 0.03 µg/mL
  MIC90: 0.25 µg/mL
[7]
  MIC: 0.03 µg/mL
Eggerthella lenta [8]
  MIC50: 0.25 µg/mL
  MIC90: 0.25 µg/mL
[9]
  MIC50: 0.25 µg/mL
  MIC90: 2 µg/mL
[10]
  MIC50: ≤ 0.015 µg/mL
  MIC90: 0.125 µg/mL
[11]
  MIC50: 0.06 µg/mL
  MIC90: 0.125 µg/mL
Bacteroides fragilis [12]
  MIC50: 0.25 µg/mL
  MIC90: 0.5 µg/mL
Bacteroides stercoris
  MIC50: 0.5 µg/mL
  MIC90: 4 µg/mL
[13]
  MIC: 0.125 µg/mL
[14]
  MIC50: 0.5 µg/mL
  MIC90: 4 µg/mL
[15]
  MIC: 0.125 µg/mL
Porphyromonas uenonis
  MIC50: 0.03 µg/mL
  MIC90: 0.06 µg/mL
[16]
  MIC50: 0.03 µg/mL
  MIC90: 0.06 µg/mL
Fusobacterium nucleatum [17]
  MIC: 4 µg/mL
Atopobium parvulum
  MIC: 1 µg/mL
Clostridium perfringens
  MIC: 0.03 µg/mL
[18]
  MIC: 0.06 µg/mL
Fusobacterium nucleatum [19]
  MIC50: 0.03 µg/mL
  MIC90: 0.25 µg/mL
Parvimonas micra
  MIC50: 0.06 µg/mL
  MIC90: 0.125 µg/mL
Clostridioides difficile
  MIC50: 2 µg/mL
  MIC90: 4 µg/mL
Bacteroides uniformis [20]
  MIC: 0.25 µg/mL
[21]
  MIC: 0.06 µg/mL
Porphyromonas gingivalis
  MIC50: 0.03 µg/mL
  MIC90: 0.06 µg/mL
Eggerthella lenta [22]
  MIC: 0.25 µg/mL
[23]
  MIC: 0.25 µg/mL
Bacteroides fragilis [24]
  MIC: 2 µg/mL
Odoribacter splanchnicus
  MIC50: 0.5 µg/mL
  MIC90: 4 µg/mL
Bacteroides fragilis [25]
  MIC: 0.5 µg/mL
Eubacterium limosum
  MIC50: 0.25 µg/mL
  MIC90: 0.25 µg/mL
Prevotella oris
  MIC: 0.125 µg/mL
[26]
  MIC50: 0.125 µg/mL
  MIC90: 0.25 µg/mL
[27]
  MIC: 1 µg/mL
[28]
  MIC: 0.03 µg/mL
Lactobacillus brevis
  MIC: 0.125 µg/mL
Gemella morbillorum
  MIC: ≤ 0.015 µg/mL

## CCC[C@@H]1C[C@@H](C(=O)N[C@@H]([C@H]2O[C@H](SC)[C@H](O)[C@@H](O)[C@H]2O)[C@H](C)Cl)N(C)C1 [CLINDAMYCIN]
[1]
  MIC: 1 µg/mL
[2]
  MIC: 0.5 µg/mL
Prevotella denticola
  MIC: ≤ 0.03 µg/mL
[6]
  MIC: ≤ 0.03 µg/mL
Bifidobacterium breve
  MIC: ≤ 0.03 µg/mL
[7]
  MIC: > 128 µg/mL
[13]
  MIC: ≤ 0.03 µg/mL
[15]
  MIC: 0.25 µg/mL
Atopobium parvulum
  MIC: 1 µg/mL
[18]
  MIC: ≤ 0.03 µg/mL
Bacteroides uniformis [20]
  MIC: ≤ 0.03 µg/mL
[21]
  MIC: 0.06 µg/mL
Eggerthella lenta [22]
  MIC: 0.25 µg/mL
[23]
  MIC: ≤ 0.03 µg/mL
Bacteroides fragilis [24]
  MIC: 0.5 µg/mL
Bacteroides fragilis [25]
  MIC: 0.5 µg/mL
Prevotella oris
  MIC: ≤ 0.03 µg/mL
[27]
  MIC: ≤ 0.03 µg/mL
[28]
  MIC: ≤ 0.03 µg/mL
Lactobacillus brevis
  MIC: ≤ 0.03 µg/mL
Gemella morbillorum
  MIC: 0.06 µg/mL
